The values that follow come from BindingDB's records for doi:10.1007/s10822-022-00478-x (Roche Innovation Center Basel, F. Hoffmann-La Roche Ltd., 2022).

SMILES strings stand for the structures.

For this test, the target named is cAMP and cAMP-inhibited cGMP 3',5'-cyclic phosphodiesterase 10A (Homo sapiens, UniProt Q9Y233). Kind of test: PDE10A assay. Summed up: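 Human PDE10A (2 ng/well) preincubated 15 min RT with compound in HEPES pH 7.5, 10 mM MgCl2, BSA, then reacted 15 min with 50 nM [3H]cGMP/cGMP substrate. Stopped with Y-Si SPA beads; bound radioactivity counted, IC50 from four-parameter logistic, pIC50 = −log10(IC50).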
The compound `O=C(Nc1ccn2nc(-c3ccccc3)nc2c1)c1cncc(Cl)c1` [Roche-Dataset for PDE10A, Compound 385] gave a half-inhibitory concentration (IC50) of 71 nM.
The result for `Cc1cc(C)n2nc(CCc3nc(N4CCCC4)nn3C3CC3)nc2n1` [Roche-Dataset for PDE10A, Compound 475] reads 8.2 nM; that for `Cn1ncc(C(=O)O)c1C(=O)Nc1ccn2nc(-c3ccnc(F)c3)nc2c1` [Roche-Dataset for PDE10A, Compound 394], 570 nM; that for `Cn1nnc(C(=O)N2CCC2)c1C(=O)Nc1ccn2nc(-c3ccccc3)nc2c1` [Roche-Dataset for PDE10A, Compound 250], 182 nM.
Turning to `CNC(=O)c1c(NC(=O)c2nc(C3CC3)cnc2Nc2cncnc2)cnn1CCC(F)(F)F` [US8703768, 173], the IC50 stood at 19 nM.
In the case of `CCN(C)C(=O)c1c(NC(=O)c2nc(C3CC3)cnc2Nc2cncnc2)cnn1C` [US8703768, 203], it took 25 nM to reach half-maximal inhibition (IC50).
The result for `O=C(NCc1nccn1Cc1ccccc1)c1nc(C2CC2)cnc1Nc1cncnc1` [Roche-Dataset for PDE10A, Compound 631] reads 273 nM.
The result for `O=C(Nc1cccc(N2CCCC2)c1)c1nc(C2CC2)cnc1Nc1cncnc1` [Roche-Dataset for PDE10A, Compound 793] reads 132 nM.
The result for `Cc1cc(NC(=O)c2ccc3cc(-c4ccccc4)nn3c2)cc(C)n1` [Roche-Dataset for PDE10A, Compound 286] reads 75 nM; that for `CCOc1ccccc1C(=O)Nc1cc(-c2ccccn2)nn1C` [Roche-Dataset for PDE10A, Compound 666], 2380 nM; that for `Cc1ncc(NC(=O)c2nc(C3CC3)cnc2Nc2cncnc2)c(C(=O)NCC(C)(C)O)n1` [US8703768, 281], 0.64 nM.
`Cc1ccc2nc(/C=C/c3nc(N4CCCC4)nn3C)nn2c1C` [Roche-Dataset for PDE10A, Compound 375] gave an IC50 of 8.73 nM.
As for `CNC(=O)c1cn(C)c(CCc2nc3c(C)ncc(C)n3n2)n1` [Roche-Dataset for PDE10A, Compound 675], the figure is 228 nM.
`Cc1ncc(C)n2nc(/C=C/c3nc(-c4cc[nH]n4)nn3C)nc12` [Roche-Dataset for PDE10A, Compound 618] showed an IC50 of 46 nM.
The result for `Clc1ccc2nc(CCc3nc4ccc(Cl)cn4n3)nn2c1` [Roche-Dataset for PDE10A, Compound 780] reads 77 nM; that for `O=C(Nc1ccc(-n2ccccc2=O)cc1)c1nc(C2CC2)ccc1Nc1cncnc1` [Roche-Dataset for PDE10A, Compound 545], 20 nM; that for `Cc1ncc(C(=O)Nc2ccn3nc(-c4ccccc4)nc3c2)cn1` [Roche-Dataset for PDE10A, Compound 813], 10000 nM.
As for `O=C(c1nc(C2CC2)cnc1Nc1cncnc1)N1CCN(CCc2ccccc2)CC1` [Roche-Dataset for PDE10A, Compound 1015], the figure is 10000 nM; as for `CCc1cnc(C)cc1NC(=O)c1ccc2cc(-c3ccccc3)nn2c1` [Roche-Dataset for PDE10A, Compound 331], 84 nM.
The compound `COCCN(C)C(=O)c1cnn(C)c1C(=O)Nc1ccn2cc(-c3cccc(F)n3)nc2n1` [Roche-Dataset for PDE10A, Compound 81] returned a concentration for half-maximal inhibition (IC50) of 163 nM.
With `CN(c1nc2cc(NC(=O)c3c(C(=O)N4CCC4)cnn3C)ccn2n1)C1CC1` [Roche-Dataset for PDE10A, Compound 450], half-maximal inhibition (IC50) was put at 0.87 nM.
Take `Cn1cc(-c2ccccc2)nc1CCc1cncc(-c2ccn[nH]2)n1` [Roche-Dataset for PDE10A, Compound 289]: half-maximal inhibition (IC50) required 307 nM.
The result for `Cc1c(-c2ccccc2)nc2n1CC[C@@H](NC(=O)c1c(C(=O)N3CCC3)cnn1C)C2` [Roche-Dataset for PDE10A, Compound 173] reads 11 nM.
The result for `CC(C)C[C@H](CO)NC(=O)c1nc(C2CC2)cnc1Nc1cncnc1` [Roche-Dataset for PDE10A, Compound 939] reads 2450 nM; that for `CCN(C)C(=O)c1cnn(C)c1C(=O)Nc1ccn2nc(N3CCOCC3)nc2c1` [Roche-Dataset for PDE10A, Compound 315], 5.67 nM; that for `Cn1cc(-c2ccccc2)nc1C#Cc1ccc2nc(C(F)(F)F)cn2n1` [US10399985, Example 8], 12 nM.
As for `Cc1ncc(O)c2nc(CCc3nc(N4CCCC4)nn3C)nn12` [Roche-Dataset for PDE10A, Compound 705], the figure is 140 nM.
In the case of `O=C(Nc1nnc(-c2ccc(F)cc2)s1)c1nc(C2CC2)ccc1Nc1cncnc1` [US8470820, 45], it took 6200 nM to reach half-maximal inhibition (IC50).
On to `COc1ccccc1-c1nc2cc(NC(=O)c3c(C(=O)O)cnn3C)ccn2n1` [Roche-Dataset for PDE10A, Compound 356], for which the IC50 stood at 9.74 nM.
With `O=C(NCCc1ccc(C(F)(F)F)cc1)c1nc(C2CC2)cnc1Nc1cncnc1` [Roche-Dataset for PDE10A, Compound 383], the IC50 was determined as 250 nM.
The result for `Cc1cc(C)n2nc(/C=C/c3nc(Br)nn3C)nc2n1` [Roche-Dataset for PDE10A, Compound 1158] reads 10000 nM.
`NS(=O)(=O)c1ccc(CCNC(=O)c2nc(C3CC3)cnc2Nc2cncnc2)cc1` [Roche-Dataset for PDE10A, Compound 569]: it took 300 nM to reach half-maximal inhibition (IC50).
As to `COc1ccccc1-c1cn2c(n1)C[C@H](NC(=O)c1c(C(=O)N(C)CCF)cnn1C)CC2` [Roche-Dataset for PDE10A, Compound 351], the half-maximal inhibitory concentration (IC50) was 173 nM.
The result for `CC(C)c1ncc(Nc2ccon2)c(C(=O)N[C@@H]2CCN(c3ccc(Cl)cn3)C2)n1` [Roche-Dataset for PDE10A, Compound 212] reads 232 nM; that for `O=C(NC1CCS(=O)(=O)CC1)c1nc(C2CC2)cnc1Nc1cncnc1` [Roche-Dataset for PDE10A, Compound 1031], 10000 nM.
The result for `CCOc1ccccc1C(=O)Nc1cc(-c2ccccn2)n[nH]1` [Roche-Dataset for PDE10A, Compound 876] reads 1480 nM; that for `Cc1cc(Cl)c(C)n2nc(CCc3nc(N4CCCC4)n(C)n3)nc12` [Roche-Dataset for PDE10A, Compound 374], 0.47 nM.
`O=C(Nc1cccc(N2CCC(O)CC2)c1)c1nc(C2CC2)cnc1Nc1cncnc1` [Roche-Dataset for PDE10A, Compound 703] displayed an IC50 of 13 nM.
Take `CNC(=O)c1cc(F)ccc1NC(=O)c1nc(C2CC2)cnc1Nc1cncnc1` [US8703768, 312]: the IC50 came out at 0.95 nM.
The result for `Cn1ncc(C(=O)N2CCC2)c1C(=O)Nc1ccn(-c2ccccc2F)n1` [Roche-Dataset for PDE10A, Compound 1043] reads 396 nM; that for `O=C(Nc1ccn2nc(-c3ccccc3)nc2c1)c1c(C(=O)N2CCC2)cnn1CCF` [Roche-Dataset for PDE10A, Compound 131], 1340 nM.
`Cc1ccc(Nc2cncc(O)n2)c(C(=O)Nc2ccn(C)n2)n1` [Roche-Dataset for PDE10A, Compound 940] returned an IC50 of 8140 nM.
As for `Cc1nc2ccc(CCc3nc(-c4ccccc4)cn3C)nn2c1CO` [US10399985, Example 15], the half-maximal inhibitory concentration (IC50) was 21 nM.
As for `CCOC(=O)c1nnsc1NC(=O)c1nc(C2CC2)ccc1Nc1cncnc1` [Roche-Dataset for PDE10A, Compound 1107], the figure is 36 nM; as for `Cn1cc(-c2ccccc2)nc1CCc1nc2c(cnn2C)c(=O)[nH]1` [Roche-Dataset for PDE10A, Compound 854], 50 nM; as for `O=C(c1nc(C2CC2)cnc1Nc1cncnc1)N1CCC(Cc2ccccc2)CC1` [Roche-Dataset for PDE10A, Compound 937], 10000 nM.
For the compound `CNC(=O)c1cc2[nH]c(-c3ccccc3)nc2cc1NC(=O)c1ccnnc1` [Roche-Dataset for PDE10A, Compound 466], the IC50 was 23 nM.
Consider `CC(C)Cn1nc(-c2ccccn2)cc1NC(=O)c1nc(C2CC2)ccc1Nc1cncnc1` [US8470820, 28], for which it took 1.24 nM to reach half-maximal inhibition (IC50).
The result for `Cc1ncc(C)n2nc(CCc3nc(N4CC[C@@H](C)[C@H]4C)nn3C)nc12` [Roche-Dataset for PDE10A, Compound 392] reads 43 nM; that for `COCc1ccc(Nc2cncnc2)c(C(=O)Nc2cc(-c3ccccn3)nn2CCO)n1` [US8470820, 11], 5.24 nM; that for `Cc1nc2cc(Cl)ccc2nc1OCc1nc(N2CCCC2)nn1C` [Roche-Dataset for PDE10A, Compound 982], 28 nM.
With `Cn1ncc(C(=O)N2CCC2)c1C(=O)Nc1cn(-c2ccccn2)cn1` [Roche-Dataset for PDE10A, Compound 833], half-maximal inhibition (IC50) was put at 46 nM.
Take `COc1ccc(-c2nnc(NC(=O)c3nc(C4CC4)ccc3Nc3cncnc3)s2)cc1` [US8470820, 44]: the half-maximal inhibitory concentration (IC50) was 1790 nM.
In turn, `CC(=O)Nc1nc2cc(NC(=O)c3nc(C)ccc3C)ccc2s1` [Roche-Dataset for PDE10A, Compound 926] returned a concentration for half-maximal inhibition (IC50) of 5770 nM.
With `CCc1nc2ccc(OCc3cccc(N4CCCC4)n3)nn2c1C` [2-ethyl-3-methyl-6-((6-(pyrrolidin-1-yl)pyridin-2-yl)methoxy)imidazo[1,2-b]pyridazine], the concentration for half-maximal inhibition (IC50) was found to be 547 nM.
The result for `O=C(Nc1ccn(C2CCCC2)n1)c1nc(C2CC2)ccc1Nc1cncnc1` [Roche-Dataset for PDE10A, Compound 580] reads 5.65 nM; that for `CC(=O)c1cc(NC(=O)c2nc(C3CC3)cnc2Nc2cncnc2)ccc1F` [Roche-Dataset for PDE10A, Compound 869], 9.64 nM.
Turning to `Cc1c(C#N)nc2ccc(C#Cc3nc(-c4ccccc4)cn3C)nn12` [Roche-Dataset for PDE10A, Compound 79], it took 1.27 nM to reach half-maximal inhibition (IC50).
As for `Cn1ncc(C(=O)N2CCC2)c1C(=O)Nc1ccn2nc(-c3cccc(OCCF)c3)nc2c1` [Roche-Dataset for PDE10A, Compound 76], the figure is 0.9 nM; as for `CS(=O)(=O)Nc1cccc(NC(=O)c2nc(C3CC3)cnc2Nc2cncnc2)c1` [Roche-Dataset for PDE10A, Compound 900], 15 nM.
